According to patent US10246733B2, “Assay and method for quantitating carbonic anhydrase activity and assessing red blood hemolysis” (CASE WESTERN RESERVE UNIVERSITY, priority 2015, dated 2019):

What was measured:
[1] = system: hemolysate released CA; test: Stopped-flow out-of-equilibrium CA assay on mouse hemolysate; format: biochemical
Source text: (§1) [drawing 3] causing pH to rise exponentially.
Adult C57/BL6 mice (8 to 16 weeks old) were sacrificed by cervical dislocation and blood was immediately collected by cardiac puncture using a 1-mL syringe (Becton, Dickinson and Co., Franklin Lakes, N.J., USA) with a 23 gauge PrecisionGlide needle (Becton, Dickinson and Co.). Prior to blood collection the syringe and needle were rinsed with 0.9% sodium heparin (H4784, Sigma-Aldrich). The blood was transferred to a 1.5-mL microcentrifuge tube, centrifuged in a Beckman Microfuge 16 Microcentrifuge (Beckman, Brea, Calif.) at 600×g for 10 min and the resulting supernatant and buffy coat were removed. To remove any residual extracellular Hb, the pelleted red blood cells (RBCs) were resuspended—in solution A to a 10% hematocrit (Hct)—and centrifuged at 600×g for 5 minutes. This process was repeated 4×. […]
A solution of isolated Hb was obtained by osmotic lysis of 20 μL of freshly prepared mouse RBCs (see above) in pure H2O (1:8 dilution), followed by centrifugation at 15000×g for 5 minutes in a Beckman Microfuge 16 Microcentrifuge, at RT room temperature. […] The supernatant (cleared of cellular debris) then was removed and transferred to a clean 1.5 mL Eppendorf tube for a The Hb concentration of the supernatant was spectroscopic determination of [Hb] using the visible absorbance spectroscopy as described above. […]

[2] = system: intact RBCs and hemolysate released CA; test: Stopped-flow out-of-equilibrium CA assay on mixtures of intact and hemolyzed mouse RBCs; format: biochemical
Source text: as §1
Adult C57/BL6 mice (8 to 16 weeks old) were sacrificed by cervical dislocation and blood was immediately collected by cardiac puncture using a 1-mL syringe (Becton, Dickinson and Co., Franklin Lakes, N.J., USA) with a 23 gauge PrecisionGlide needle (Becton, Dickinson and Co.). Prior to blood collection the syringe and needle were rinsed with 0.9% sodium heparin (H4784, Sigma-Aldrich). The blood was transferred to a 1.5-mL microcentrifuge tube, centrifuged in a Beckman Microfuge 16 Microcentrifuge (Beckman, Brea, Calif.) at 600×g for 10 min and the resulting supernatant and buffy coat were removed. To remove any residual extracellular Hb, the pelleted red blood cells (RBCs) were resuspended—in solution A to a 10% hematocrit (Hct)—and centrifuged at 600×g for 5 minutes. This process was repeated 4×. After the final wash the RBCs were resuspended in solution A to a final Hct of ˜20% to ˜30%.
A solution of isolated Hb was obtained by osmotic lysis of 20 μL of freshly prepared mouse RBCs (see above) in pure H2O (1:8 dilution), followed by centrifugation at 15000×g for 5 minutes in a Beckman Microfuge 16 Microcentrifuge, at RT room temperature. This centrifugation step separated the cellular debris from the Hb containing supernatant. The supernatant (cleared of cellular debris) then was removed and transferred to a clean 1.5 mL Eppendorf tube for a The Hb concentration of the supernatant was spectroscopic determination of [Hb] using the visible absorbance spectroscopy as described above.
Simulated degrees of hemolysis (0-up to 100%) were achieved by mixing different proportions of freshly prepared, ostensibly “intact” RBCs and a lysate (representing 100% lysis), while maintaining the total Hb concentration at 5 μM (Table 2). For example, the mixture simulating ostensibly 0% hemolysis contained 5 μM Hb from RBCs. The mixture simulating ostensibly 50% hemolysis contained 2.5 μM Hb from RBCs and 2.5 μM Hb from the lysate supernatant (added to the RBC mixture in a dilution of ˜1:400 to ˜1:4000, depending on the [Hb]). […]

[3] = Calibration of pH indicator dye (pK from fluorescence-excitation ratio titration curve); format: physicochemical; conditions: 10° C., five sets of experiments, ± SD
Method: We calibrated the pH indicator dye pyranine at 10° C. by mixing in the SF device two identical solutions that were either the pH-7.50 “pH calibration solution for dye” listed in (Table 1), or variants thereof obtained by titrating the pH as outlined in a footnote to (Table 1). For each pH value X, we computed (I460/I415)pHx as described in the previous section. We fitted the following theoretical titration curve to our experimental data:
[formula] which normalizes the data to the value observed at pH 7.5, and forces the function to have a value of unity at this pH.
We used an iterative non-linear least-squares method to determine b and pK. […] The best-fit values were 7.11±0.01 (SD) for the pK, and 1.39±0.01(SD) for b. We used these values of pK and b and the values for ratio of (I460/I415) in each experiment to calculate pH.

[4] = cited from earlier work

With `CC(=O)Nc1nnc(S(N)(=O)=O)s1` [ACZ, acetazolamide] the “krx (rate constant of HCO3- + H+ -> CO2 + H2O reaction) in presence of ACZ” value ([1]; 10 μM ACZ in syringe opposite to hemolysate (5%-100% relative amount), 10° C., reduced to the uncatalyzed value) was roughly 0.02 s-^1, the “time for pHo to reach ~7.5 with ACZ” value ([1]; ACZ in solution opposite to hemolysate (FIG. 3D)) was roughly 200 s and the “extracellular CA enzyme activity with ACZ” value ([2]; 10 μM ACZ in syringe opposite to RBCs) was “totally blocked”. For the same molecule, the “krx (rate constant of HCO3- + H+ -> CO2 + H2O reaction) in presence of ACZ” value ([2]; 10 μM ACZ in syringe opposite to RBCs (5%-100% hemolysis of RBCs), 10° C., reduced to the uncatalyzed value) was roughly 0.02 s-^1 and the “time for pHo to reach ~7.5 with ACZ” value ([2]; ACZ in solution opposite to RBCs (FIG. 4D)) was roughly 200 s.
For `O=S(=O)([O-])c1cc(O)c2ccc3c(S(=O)(=O)[O-])cc(S(=O)(=O)[O-])c4ccc1c2c34.[Na+].[Na+].[Na+]` [pyranine], the “pK (best-fit value)” value [3] is given as 7.11±0.01 and the “PKa in previous study” value [4] is given as “around 7.3”.
